# Measurements as given in patent US9050343B2 (ACADIA Pharmaceuticals Inc., priority 2007, dated 2015).
# Where “and” joins values, the source holds several entries; their conditions need not be identical. Equal entries are not always repeated. Where two headings read alike, the source gives them in different places.
# Legend:
# serum prolactin levels = experiment: Prolactin assay (serum prolactin); format: in vivo, rats; conditions: for serum prolactin levels, dose response: compared to vehicle controls, pimavanserin up to 3 mg/kg, FIG. 20A
# Description: (§1) Male non-Swiss albino (NSA) mice and Sprague-Dawley (SD) rats (Harlan, San Diego, Calif.) served as subjects for the present investigation. Animals were housed in climate-controlled rooms on a 12/12 light dark cycle with on lights at 0600 hr. Rats were housed in groups of two and mice were housed in groups of eight. Food and water was available ad libitum except during experimental procedures.
# Rats were deeply anesthetized with isoflurane and blood samples were obtained by cardiac puncture, allowed to clot and then centrifuged at 12,000 rpm for 10 min to yield serum for analysis. Serum prolactin levels were quantified using a commercially available enzyme immunoassay kit (ALPCO Diagnostics, Windham, N.H.).
# [1] = tested on: dizocilpine-induced hyperlocomotion in mice; experiment: Dizocilpine-induced hyperlocomotor activity assay and isobolographic analysis; format: in vivo; conditions: for ID50: agent alone, sc
# catalepsy in rats = experiment: Catalepsy assessment; format: in vivo
# Description: as §1
# In order to generate dose-response curves raw CVs were converted to percentage maximum possible catalepsy (% MPC): % MPC=((CV drug or drug combination−CV vehicle control)/(120−CV vehicle control))*100. […] Each dose or dose combination was assessed in separate groups of rats.
# [2] = haloperidol 2 mg per day alone or with pimavanserin 20 mg per day
# prolactin levels = conditions: haloperidol-treated patients compared to risperidone patients
# [3] = tested on: amphetamine-induced hyperlocomotion in mice; experiment: Amphetamine-induced hyperlocomotor activity assay; format: in vivo; conditions: for suppression of amphetamine-induced hyperlocomotion: pimavanserin at 0.03 mg/kg sc; for suppression of amphetamine-induced hyperlocomotor activity: antipsychotic combined with a fixed dose of pimavanserin (0.03 mg/kg)
# [4] = Brain levels of pimavanserin and haloperidol; conditions: Pim + Veh
# alpha-adrenergic = experiment: Alpha-adrenergic antagonist activity
# Description: (§2) Further, the compound lacks potency at the 5HT2B receptor that controls gastrointestinal function and myocardial development.
# [5] = tested on: hyperactivity in mice induced by MK-801; experiment: MK-801 induced hyperactivity; conditions: oral doses of 3 and 10 mg/kg
# [6] = multiple oral doses; cited from earlier work
# histaminergic receptors = experiment: Activity at histaminergic receptors
# Description: as §2
# [7] = tested on: in vivo mouse model of cognition; experiment: Novel object recognition assay; set-up: species or system mice; conditions: pimavanserin (0.3 mg/kg) in combination with risperidone or olanzapine; FIG. 18
# Experimental: Compounds were administered to mice at one hour post-training (a time-point at which animals normally behaviorally discriminate between novel and familiar objects) and two hours post-training (a time-point at which these animals normally no longer discriminate between objects).
# [8] = Unbound fraction in plasma; format: in vitro ADME; conditions: parameter used for occupancy simulation, read-out: fu (unbound fraction in plasma)
# Description: CR may then be calculated using equation 2. CR=fu*Cpl(t), where fu is the free fraction of drug in plasma and Cpl(t) is the plasma concentration at time t.
# [9] = Simulation of pimavanserin plasma concentration-time profile, 20 mg once daily; conditions: initial parameter for simulation, 20 mg once daily oral
# [10] = tested on: auto-shaped response in mice; experiment: Learning of a simple auto-shaped response; conditions: intraperitoneal doses up to 32 mg/kg
# [11] = tested on: DOI induced head twitches in the rat; experiment: DOI induced head twitches; conditions: oral doses of 3 and 10 mg/kg
# [12] = tested on: rat model of deficits in sensory motor gating; experiment: Sensory motor gating deficit induced by DOI; conditions: doses of 1 and 3 mg/kg SC
# 5HT2B receptor = 5HT2B receptor (Homo sapiens, UniProt P41595); experiment: Potency at 5HT2B receptor
# Chain of 5HT2B receptor (P41595 whole entry): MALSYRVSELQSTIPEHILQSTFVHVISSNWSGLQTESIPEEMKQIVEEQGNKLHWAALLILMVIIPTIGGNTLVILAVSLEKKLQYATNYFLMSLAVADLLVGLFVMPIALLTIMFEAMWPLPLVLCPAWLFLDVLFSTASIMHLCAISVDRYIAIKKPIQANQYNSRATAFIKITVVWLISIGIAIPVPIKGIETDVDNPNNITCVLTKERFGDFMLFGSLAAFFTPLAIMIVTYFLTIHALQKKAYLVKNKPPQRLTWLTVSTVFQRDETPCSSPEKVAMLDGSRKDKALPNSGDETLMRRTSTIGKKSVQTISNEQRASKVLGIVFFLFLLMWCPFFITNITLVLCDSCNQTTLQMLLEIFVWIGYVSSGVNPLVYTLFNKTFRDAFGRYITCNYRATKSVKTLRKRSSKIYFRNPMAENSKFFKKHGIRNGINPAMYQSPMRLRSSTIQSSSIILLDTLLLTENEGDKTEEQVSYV
# Description: […]. Further, the compound lacks potency at the 5HT2B receptor that controls gastrointestinal function and myocardial development.
# [13] = Pimavanserin plasma pharmacokinetics fitted to 1-compartment model; format: in vivo
# Description: Initial parameters for the simulation were obtained by fitting mean plasma concentration-time data to a 1-compartment model (first order input, no lag time and first order elimination).
# muscarinic receptors = experiment: Activity at muscarinic receptors
# Description: as §2
# [14] = tested on: radial arm maze in vivo mouse model of cognition; experiment: Radial arm maze model of cognition; set-up: species or system mice; conditions: pimavanserin (1 mg/kg) in combination with risperidone; FIG. 19
# [15] = tested on: schizophrenic subjects with an acute exacerbation of psychosis; experiment: Randomized double blind study in schizophrenic subjects: PANSS and CGI-S; format: in vivo, human
# [16] = initial parameter for simulation, 5 mg once daily oral
# [17] = combined with a fixed dose of pimavanserin (0.03 mg/kg)
# [18] = 14th oral dose of 50 mg, 1-compartment model
# [19] = plasma, 14th oral dose of 50 mg, 1-compartment model
smiles,measurement,setting,value
"O=C(CCCN1CCC(O)(c2ccc(Cl)cc2)CC1)c1ccc(F)cc1 [Haloperidol, haloperidol]","serum prolactin levels, dose response",serum prolactin levels,dose-related increase in serum prolactin levels
same,magnitude of prolactinemia,"serum prolactin levels; fixed dose haloperidol (0.1 mg/kg) or risperidone (0.01 mg/kg) in the presence of pimavanserin, FIG. 20B",significantly attenuated
same,serum prolactin levels,"serum prolactin levels; haloperidol 0.1 mg/kg ip, vehicle 31±3",102 ± 12 ng/mL
same,ID50,[1],0.07 mg/kg
same,CD50 (dose that elicits 50% of maximum catalepsy),"catalepsy in rats; agent alone, ip",0.27 mg/kg
same,CD50,catalepsy in rats; in the presence of 1 mg/kg pimavanserin sc,0.24 mg/kg
same,CD50,catalepsy in rats; in the presence of 3 mg/kg pimavanserin sc,0.38 mg/kg
same,CD50,catalepsy in rats; in the presence of 10 mg/kg pimavanserin sc,0.53 mg/kg
same,Mean weight gain,[2],0.7657 kg
same,Final mean weight,[2]; end of study,83.759 kg
same,PRL levels,prolactin levels,lower
same,suppression of amphetamine-induced hyperlocomotion,[3]; agent alone,dose dependently attenuated hyperactivity produced by amphetamine
same,ID50,"[3]; agent alone, sc, from % MPI",0.012 mg/kg
same,suppression of amphetamine-induced hyperlocomotor activity,[3],enhanced suppression of amphetamine-induced hyperlocomotor activity
same,ID50,[3]; [17],0.0013 mg/kg
same,shift of the dose-response curve,[3]; [17],significantly shifted to the left by a factor of approximately 10
C[C@]12N[C@H](Cc3ccccc31)c1ccccc12 [dizocilpine],total distance traveled (DT),"[1]; dizocilpine 0.3 mg/kg ip, vehicle controls 792±40 cm, 649±67 cm",2227±116 cm and 2020±223 cm
O=C1CCc2ccc(OCCCCN3CCN(c4cccc(Cl)c4Cl)CC3)cc2N1 [aripiprazole],suppression of amphetamine-induced hyperlocomotion,[3]; agent alone,dose dependently attenuated hyperactivity produced by amphetamine
same,suppression of amphetamine-induced hyperlocomotor activity,[3],enhanced suppression of amphetamine-induced hyperlocomotor activity
same,shift of the dose-response curve,[3]; [17],significantly shifted to the left
"CC(C)COc1ccc(CNC(=O)N(Cc2ccc(F)cc2)C2CCN(C)CC2)cc1 [Pimavanserin, N-(1-methylpiperidin-4-yl)-N-(4-fluorophenylmethyl)-N′-(4-(2-methylpropyloxy)phenylmethyl)carbamide]",Pimavanserin brain levels,[4],23 (±6) nmol/kg
same,alpha-adrenergic antagonist activities,alpha-adrenergic,lacks the alpha-adrenergic antagonist activities
same,serum prolactin concentrations,"serum prolactin levels; 3 mg/kg pimavanserin sc, 60 min, below the limit of detection, value of 15 ng/mL assigned, vehicle 31±3",15 ± 0 ng/mL
same,"serum prolactin levels, dose response",serum prolactin levels,did not significantly elevate serum prolactin levels
same,ID50,[1],0.09 mg/kg
same,attenuation of hyperactivity induced by MK-801,[5],effective
same,"oral clearance, previous reported value",[6],25.2 L/h
same,activity at the histaminergic receptors,histaminergic receptors,does not have significant activity
same,catalepsy,catalepsy in rats; doses up to 10 mg/kg,did not elicit catalepsy
same,maximum CV (catalepsy value),"catalepsy in rats; doses up to 10 mg/kg, vehicle 6.8±0.9 sec",10.5 ± 2.4 s
same,percent novel object recognition,[7],reverses novel object recognition impairment caused by risperidone and olanzapine
same,fraction unbound,[8],0.05
same,K01,[9],0.9197 L/h
same,V/F,[9],2182727 mL
same,learning of a simple auto-shaped response,[10],failed to disrupt learning of a simple auto-shaped response
same,DOI induced head twitches,[11],effective
same,suppression of amphetamine-induced hyperlocomotion,[3]; agent alone,failed to suppress hyperlocomotion produced by amphetamine
same,gating deficit induced by DOI,[12],potently reversed the gating deficit induced by DOI
same,potency at the 5HT2B receptor,5HT2B receptor,lacks potency
same,Absorption rate constant (k01),[13]; [18],0.9197 h⁻¹
same,CL/F,[13]; [18],6.4 L/h
same,Elimination rate constant (k10),[13]; [18],0.0121 h⁻¹
same,half-life,"[13]; plasma, oral, 50 mg",57.3 h
same,Cmax,[13]; [19],89.3 ng/mL
same,Tmax,[13]; [19],4.77 h
same,AUC(0-t),"[13]; plasma, 14th oral dose of 50 mg, 1-compartment model, read-out: AUC (0-24)ss",1890 ng·h/mL
same,activity at the muscarinic receptors,muscarinic receptors,does not have significant activity
same,working memory errors after repeated trials,[14],improved the cognitive deficit induced by risperidone
CC(N)Cc1ccccc1 (stereo not drawn) [amphetamine],total distance traveled (DT),"[3]; amphetamine 3 mg/kg ip, 15 min session, vehicle controls 876±42 cm",2764±230 cm
OCCOCCN1CCN(C2=Nc3ccccc3Sc3ccccc32)CC1 [quetiapine],suppression of amphetamine-induced hyperlocomotion,[3]; agent alone,dose dependently attenuated hyperactivity produced by amphetamine
same,suppression of amphetamine-induced hyperlocomotor activity,[3],enhanced suppression of amphetamine-induced hyperlocomotor activity
same,shift of the dose-response curve,[3]; [17],shifted to the left
"Cc1nc2n(c(=O)c1CCN1CCC(c3noc4cc(F)ccc34)CC1)CCCC2 [Risperidone, risperidone]",ID50,[1],0.0045 mg/kg
same,effectiveness compared with other treatments,[15]; low dose risperidone (2 mg per day),significantly less effective than the other treatments
same,mean change in PANNS score,"[15]; risperidone 2 mg per day, alone or co-administered with pimavanserin 20 mg per day",16.6 points
same,K01,[16],0.4403 h⁻¹
same,V1/F,[16],60222 mL
